Results: patent publication US20250059172A1, “INDAZOLE COMPOUND AND PHARMACEUTICAL” (NIPPON SHINYAKU CO., LTD., priority 2021, published 2025)
Counter-ions that a name gives are not always drawn.

Tests used:
human A549 cells = test: Inhibition test of PGE2 production using human A549 cells; format: cell-based; conditions: IL-1β stimulated A549 cells, 24 h, PGE2 by HTRF, read-out: A549 cell inhibition of PGE2 production IC50
Experimental: 100 μL of RPMI medium (Sigma) comprising 10% FBS and human A549 cells was seeded in a 96-well plate to […] cells per well, and incubated overnight. The medium was then removed and washed with phosphate-buffered saline, and added to a DMSO solution of the test compound or RPMI medium comprising 3% FBS with DMSO to a final concentration of 0.1% DMSO. After incubation for 60 minutes, IL-1P (5 ng/well, BioLegend) was added to the solution. After incubation at 37° C. for 24 h, PGE2 in the medium was quantified using the HTRF kit (Cisbio International) and PGF2a was also quantified using the EIA kit (Cayman chemical). Solutions without the test compound were used as positive controls, and solutions without the test compound and IL-1β were used as negative controls. 100% activity was defined as production of PGE2 and PGF2a in the positive control minus those in the negative control. IC50 values were then determined using standard methods.

human mPGES-1 = human mPGES-1 (Homo sapiens (Human), UniProt O14684); test: mPGES-1 inhibitory activity test; format: biochemical; conditions: for IC50: microsomes of CHO-K1 cells expressing human mPGES-1, PGH2 1 μM, PGE2 by HTRF, read-out: mPGES-1 inhibition (IC50 nM); for inhibition at 0.01 µM: 10 nM test compound; for inhibition at 0.1 µM: 100 nM test compound
Experimental: mPGES-1 microsomal specimens were prepared by transiently transfecting CHO-K1 cells (DS Pharma Biomedical Co. Ltd) with a plasmid encoding human mPGES-1 cDNA using FuGENE 6 Transfection Reagent (Promega). The prepared mPGES-1 microsome specimens were diluted in potassium phosphate buffer of pH 7.4 comprising 2.5 mM reduced glutathione (Sigma-Aldrich), DMSO solution of a test compound or DMSO was added to a final concentration of 1% of DMSO, and then incubated at 4° C. for 20 minutes. The enzymatic reaction was then initiated by adding a solution of PGH2 (Cayman chemical) substrate of a final concentration 1 μM and incubated at 4° C. for 60 seconds. The reaction was terminated by adding a solution of ferric chloride (STREM CHEMICALS) and citric acid (Wako Pure Chemical Industries) salt to a final concentration of 5 mg/mL and 250 mM, respectively. The formed PGE2 was quantified using the HTRF kit (Cisbio International). Solutions without the test compound were used as positive controls, and solutions without the test compound and microsomal specimens were used as negative controls. 100% activity was defined as production of PGE2 in the positive control minus that in the negative control. The percentage inhibition of production of PGE2 at final concentrations of 10 nM and 100 nM of the test compound was then calculated, or IC50 values were determined using standard methods.

human mPGES-1, sequence (O14684 whole entry): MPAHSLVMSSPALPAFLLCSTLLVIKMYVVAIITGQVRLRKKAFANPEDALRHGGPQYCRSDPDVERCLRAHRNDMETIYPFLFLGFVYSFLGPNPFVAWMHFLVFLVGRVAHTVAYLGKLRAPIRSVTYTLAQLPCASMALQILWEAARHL

Work on O=C(NCc1ccc(Cl)c(C(=O)Nc2cccc3c2cnn3-c2ccc(C(F)(F)F)cc2)c1)c1ccco1 [Example 45, N-[4-chloro-3-({1-[4-(trifluoromethyl)phenyl]-1H-indazol-4-yl}carbamoyl)benzyl]furan-2-carboxamide] yielded an IC50 (human A549 cells) of 37.6 nM and an IC50 (human mPGES-1) of 1.2 nM.

Molecule O=C(Nc1cccc2c1cnn2-c1ccc(C(F)(F)F)nc1)c1cc(CNC(=O)C2CCCC2)ccc1Cl [Example 174, 2-Chloro-5-{[(cyclopentylcarbonyl)amino]methyl}-N-{1-[6-(trifluoromethyl)pyridin-3-yl]-1H-indazol-4-yl}benzamide] has an IC50 (human A549 cells) of 1.9 nM, an inhibition at 0.01 µM (human mPGES-1) of 85% and an inhibition at 0.1 µM (human mPGES-1) of 86%.

Work on CC(C)(C)C(=O)NCc1ccc(Cl)c(C(=O)Nc2cccc3c2cnn3CCN2CCOCC2)c1 [Example 107, 2-Chloro-5-{[(2,2-dimethylpropanoyl)amino]methyl}-N-{1-[2-(morpholin-4-yl)ethyl]-1H-indazol-4-yl}benzamide hydrochloride] yielded an IC50 (human A549 cells) of 399 nM and an IC50 (human mPGES-1) of 10 nM.

With O=C(Nc1cccc2c1cnn2-c1ccccc1)c1cc(CNC(=O)C2CC2)ccc1Cl [Example 2, 2-Chloro-5-{[(cyclopropylcarbonyl)amino]methyl}-N-(1-phenyl-1H-indazol-4-yl)benzamide] the IC50 (human A549 cells) was 6.3 nM and the IC50 (human mPGES-1) was 0.2 nM.

Work on O=C(Nc1cccc2c1cnn2-c1cccc(C(F)(F)F)c1)c1c(F)ccc(CNC(=O)C2CC2)c1F [Example 16, 3-{[(Cyclopropylcarbonyl)amino]methyl}-2,6-difluoro-N-{1-[3-(trifluoromethyl)phenyl]-1H-indazol-4-yl}benzamide] yielded an IC50 (human A549 cells) of 9.7 nM and an IC50 (human mPGES-1) of 6.3 nM.

COc1ccc(-n2ncc3c(NC(=O)c4cc(CNC(=O)C5CCCC5)ccc4Cl)cccc32)cc1C(F)(F)F [Example 262, 2-Chloro-5-{[(cyclopentylcarbonyl)amino]methyl}-N-{1-[4-methoxy-3-(trifluoromethyl)phenyl]-1H-indazol-4-yl}benzamide] gave an IC50 (human A549 cells) of 2 nM, an inhibition at 0.01 µM (human mPGES-1) of 99% and an inhibition at 0.1 µM (human mPGES-1) of 94%.

O=C(Nc1cccc2c1cnn2-c1ccc(C(F)(F)F)nc1)c1cc(CNS(=O)(=O)C2CC2)ccc1Cl [Example 179, 2-Chloro-5-{[(cyclopropylsulfonyl)amino]methyl}-N-{1-[6-(trifluoromethyl)pyridin-3-yl]-1H-indazol-4-yl}benzamide] was tested, and the IC50 (human A549 cells) was 4.4 nM, the inhibition at 0.01 µM (human mPGES-1) was 59% and the inhibition at 0.1 µM (human mPGES-1) was 95%.

Work on O=C(Nc1cccc2c1cnn2-c1ccc(C(F)(F)F)cc1)c1cc(CNS(=O)(=O)C2CC2)ccc1Cl [Example 23, 2-Chloro-5-{[(cyclopropylsulfonyl)amino]methyl}-N-{1-[4-(trifluoromethyl)phenyl]-1H-indazol-4-yl}benzamide] yielded an IC50 (human A549 cells) of 1.5 nM and an IC50 (human mPGES-1) of 5.2 nM.

With COCC(=O)NCc1ccc(Cl)c(C(=O)Nc2cccc3c2cnn3-c2ccc(F)cc2)c1 [Example 155, 2-Chloro-N-[1-(4-fluorophenyl)-1H-indazol-4-yl]-5-([(methoxyacetyl)amino]methyl)benzamide] the IC50 (human A549 cells) was 5.9 nM and the inhibition at 0.01 µM (human mPGES-1) was 100%.

CCn1ncc2c(NC(=O)c3cc(CNC(=O)C(C)(C)C)ccc3C(F)(F)F)cccc21 [Example 217, 5-{[(2,2-Dimethylpropanoyl)amino]methyl}-N-(1-ethyl-1H-indazol-4-yl)-2-(trifluoromethyl)benzamide] gave an IC50 (human A549 cells) of 14.7 nM, an inhibition at 0.01 µM (human mPGES-1) of 79% and an inhibition at 0.1 µM (human mPGES-1) of 80%.

For Cn1ncc2c(NC(=O)c3cc(CNC(=O)C(C)(C)C)ccc3Cl)cccc21 [Example 111, 2-Chloro-5-{[(2,2-dimethylpropanoyl)amino]methyl}-N-(1-methyl-1H-indazol-4-yl)benzamide], the IC50 (human A549 cells) was 40.6 nM and the IC50 (human mPGES-1) was 5.5 nM.

CC(C)(C)C(=O)NCc1ccc(C(F)(F)F)c(C(=O)Nc2cccc3c2cnn3C2CC2)c1 [Example 285, 5-{[(2,2-Dimethylpropanoyl)amino]methyl}-N-(1-cyclopropyl-1H-indazol-4-yl)-2-(trifluoromethyl)benzamide] gave an IC50 (human A549 cells) of 7.7 nM and an inhibition at 0.01 µM (human mPGES-1) of 75%.

Molecule Cn1ncc2c(NC(=O)c3cc(CNS(=O)(=O)C4CC4)ccc3Cl)cccc21 [Example 208, 2-Chloro-5-{[(cyclopropylsulfonyl)amino]methyl}-N-(1-methyl-1H-indazol-4-yl)benzamide] has an IC50 (human A549 cells) of 799 nM, an inhibition at 0.01 µM (human mPGES-1) of 63% and an inhibition at 0.1 µM (human mPGES-1) of 68%.

In the case of O=C(NCc1ccc(Cl)c(C(=O)Nc2cccc3c2cnn3-c2ccc(C(F)(F)F)cc2)c1)c1ccccc1 [Example 22, 2-Chloro-5-{[(phenylcarbonyl)amino]methyl}-N-{1-[4-(trifluoromethyl)phenyl]-1H-indazol-4-yl}benzamide], the IC50 (human A549 cells) is reported as 12.8 nM and the IC50 (human mPGES-1) is reported as 3.3 nM.

For COc1ccc(-n2ncc3c(NC(=O)c4cc(CNC(=O)C(C)(C)C)ccc4Cl)cccc32)cc1C(F)(F)F [Example 62, 2-Chloro-5-{[(2,2-dimethylpropanoyl)amino]methyl}-N-{1-[4-methoxy-3-(trifluoromethyl)phenyl]-1H-indazol-4-yl}benzamide], the IC50 (human A549 cells) was 3.6 nM and the IC50 (human mPGES-1) was 2.4 nM.

Cc1ccc(-n2ncc3c(NC(=O)c4cc(CNS(=O)(=O)C5CC5)ccc4Cl)cccc32)cc1C(F)(F)F [Example 260, 2-Chloro-5-{[(cyclopropylsulfonyl)amino]methyl}-N-{1-[4-methyl-3-(trifluoromethyl)phenyl]-1H-indazol-4-yl}benzamide] was tested, and the IC50 (human A549 cells) was 1 nM, the inhibition at 0.01 µM (human mPGES-1) was 89% and the inhibition at 0.1 µM (human mPGES-1) was 101%.

Work on COc1ccc(-n2ncc3c(NC(=O)c4cc(CNC(=O)C5(O)CC5)ccc4Cl)cccc32)cc1C(F)(F)F [Example 264, 2-Chloro-5-({[(1-hydroxycyclopropyl)carbonyl]amino}methyl)-N-{1-[4-methoxy-3-(trifluoromethyl)phenyl]-1H-indazol-4-yl}benzamide] yielded an IC50 (human A549 cells) of 5.1 nM, an inhibition at 0.01 µM (human mPGES-1) of 94% and an inhibition at 0.1 µM (human mPGES-1) of 97%.

Molecule Cn1ncc2c(NC(=O)c3cc(CNC(=O)C(C)(C)C)ccc3C(F)(F)F)cccc21 [Example 209, 5-{[(2,2-Dimethylpropanoyl)amino]methyl}-N-(1-methyl-1H-indazol-4-yl)-2-(trifluoromethyl)benzamide] has an IC50 (human A549 cells) of 38.4 nM, an inhibition at 0.01 µM (human mPGES-1) of 76% and an inhibition at 0.1 µM (human mPGES-1) of 90%.

For CCn1ncc2c(NC(=O)c3cc(CNC(=O)C(C)(C)C)ccc3Cl)cccc21 [Example 113, 2-Chloro-5-{[(2,2-dimethylpropanoyl)amino]methyl}-N-(1-ethyl-1H-indazol-4-yl)benzamide], the IC50 (human A549 cells) was 20.2 nM and the IC50 (human mPGES-1) was 1.2 nM.

With Cc1cc(OC(F)(F)F)ccc1-n1ncc2c(NC(=O)c3cc(CNC(=O)C(C)(C)C)ccc3Cl)cccc21 [Example 79, 2-Chloro-5-{[(2,2-dimethylpropanoyl)amino]methyl}-N-{1-[2-methyl-4-(trifluoromethoxy)phenyl]-1H-indazol-4-yl}benzamide] the IC50 (human A549 cells) was 3.4 nM and the IC50 (human mPGES-1) was 1 nM.

Cc1ccc(-n2ncc3c(NC(=O)c4cc(CNC(=O)C(C)(C)C)ccc4Cl)cccc32)cn1 [Example 54, 2-Chloro-5-{[(2,2-dimethylpropanoyl)amino]methyl}-N-[1-(6-methylpyridin-3-yl)-1H-indazol-4-yl]benzamide hydrochloride] was tested, and the IC50 (human A549 cells) was 6.2 nM and the IC50 (human mPGES-1) was 9.5 nM.

CC(C)(C)CC(=O)NCc1ccc(Cl)c(C(=O)Nc2cccc3c2cnn3-c2ccc(Cl)cc2)c1 [Example 145, 2-Chloro-N-[1-(4-chlorophenyl)-1H-indazol-4-yl]-5-([(3,3-dimethylbutanoyl)amino]methyl)benzamide] showed an IC50 (human A549 cells) of 6.3 nM and an inhibition at 0.01 µM (human mPGES-1) of 92%.

Molecule CC(C)(C)C(=O)NCc1ccc(Cl)c(C(=O)Nc2cccc3c2cnn3-c2ccc(C#N)nc2)c1 [Example 72, 2-Chloro-N-[1-(6-cyanopyridin-3-yl)-1H-indazol-4-yl]-5-([(2,2-dimethylpropanoyl)amino]methyl)benzamide] has an IC50 (human A549 cells) of 11.5 nM and an IC50 (human mPGES-1) of 6.2 nM.

With O=C(Nc1cccc2c1cnn2-c1cccnc1)c1cc(CNC(=O)C2CC2)ccc1Cl [Example 4, 2-Chloro-5-{[(cyclopropylcarbonyl)amino]methyl}-N-[1-(pyridin-3-yl)-1H-indazol-4-yl]benzamide hydrochloride] the IC50 (human mPGES-1) was 18.8 nM.

Work on CC#CC(=O)NCc1ccc(Cl)c(C(=O)Nc2cccc3c2cnn3-c2ccc(C(F)(F)F)cc2)c1 [Example 42, 5-[(2-Butynoylamino)methyl]-2-chloro-N-{1-[4-(trifluoromethyl)phenyl]-1H-indazol-4-yl}benzamide] yielded an IC50 (human mPGES-1) of 391 nM.
